According to ChEMBL document CHEMBL6121041, “Design and synthesis of isatin derivative payloaded peptide-drug conjugate as tubulin inhibitor against colorectal cancer” (Eur J Med Chem, 2025):
pIC50: −log10 of the molar value. Calls of active or inactive are those of the source. The calls are words filed in the database; no cut-off is given here. Residues, ends and D or L forms follow the SMILES beside them. *: point of attachment. X1 = COc1ccc(CN2C(=O)C(=O)c3cc(-c4ccc(OC(=O)CCC(=O)*)cc4)ccc32)cc1

Assays:
[1] = Cytotoxicity against HUVEC cells assessed as reduction in cell viability incubated for 48 hrs by MTT assay; format: toxicity, cell-based; conditions: human
[2] = Cytotoxicity against HK-2 cells assessed as reduction in cell viability incubated for 48 hrs by MTT assay; format: toxicity, cell-based; conditions: human
HCT-116 [3] = test: Antiproliferative activity against human HCT-116 cells assessed as reduction in cell viability incubated for 48 hrs by MTT assay; format: functional, cell-based; conditions: HCT-116, 48 h
786-0 = test: Antiproliferative activity against human 786-0 cells assessed as reduction in cell viability incubated for 48 hrs by MTT assay; format: functional, cell-based; conditions: 786-0, 48 h
HCC827 = test: Antiproliferative activity against human HCC827 cells assessed as reduction in cell viability incubated for 48 hrs by MTT assay; format: functional, cell-based; conditions: HCC827, 48 h
K562 = test: Antiproliferative activity against human K562 cells assessed as reduction in cell viability incubated for 48 hrs by MTT assay; format: functional, cell-based; conditions: K562, 48 h
MGC-803 = test: Antiproliferative activity against human MGC-803 cells assessed as reduction in cell viability incubated for 48 hrs by MTT assay; format: functional, cell-based; conditions: MGC-803, 48 h
HepG2 = test: Antiproliferative activity against human HepG2 cells assessed as reduction in cell viability incubated for 48 hrs by MTT assay; format: functional, cell-based; conditions: HepG2, 48 h
HCT-116 [4] = test: Inhibition of colony formation in human HCT-116 cells at 0.4 to 0.8 uM measured after 10 days by crystal violet staining based inverted microscopic analysis; format: functional, cell-based; conditions: dose 0.4-0.8 µM, time 10.0 day
HCT-116 [5] = test: Inhibition of wound closure in human HCT-116 cells at 0.4 uM measured after 48 hrs by wound healing assay; format: functional, cell-based
HCT-116 [6] = test: Induction of apoptosis in human HCT-116 cells assessed as cell fragmentation at 0.4 to 0.8 microM measured after 24 hrs by microscopic analysis; format: functional, cell-based; conditions: dose 0.4-0.8 µM
HCT-116 [7] = test: Induction of apoptosis in human HCT-116 cells assessed as morphological changes at 0.4 to 0.8 microM measured after 24 hrs by microscopic analysis; format: functional, cell-based; conditions: dose 0.4-0.8 µM
HCT-116 [8] = test: Induction of apoptosis in human HCT-116 cells assessed as morphological changes at 0.4 to 0.8 microM measured after 48 hrs by microscopic analysis; format: functional, cell-based; conditions: dose 0.4-0.8 µM
HCT-116 [9] = test: Induction of apoptosis in human HCT-116 cells at 0.4 to 0.8 uM incubated for 24 hrs by Annexin V-FITC/PI staining based flow cytometric analysis; format: functional, cell-based; conditions: dose 0.4-0.8 µM
HCT-116 [10] = test: Cell cycle arrest in human HCT-116 cells assessed as accumulation of cells at G2/M phase at 0.4 to 0.8 uM incubated for 24 hrs by PI staining based flow cytometric analysis; format: functional; conditions: dose 0.4-0.8 µM
HCT-116 [11] = test: Induction of apoptosis in human HCT-116 cells assessed as increase in caspase-3 activation level at 0.8 uM measured after 24 hrs by Western blot analysis; format: functional, cell-based
HCT-116 [12] = test: Induction of apoptosis in human HCT-116 cells assessed as increase in PARP activation level at 0.8 uM measured after 24 hrs by Western blot analysis; format: functional, cell-based
HCT-116 [13] = test: Induction of apoptosis in human HCT-116 cells assessed as downregulation of Bcl-2 protein at 0.8 uM measured after 24 hrs by Western blot analysis; format: functional, cell-based
HCT-116 [14] = test: Induction of apoptosis in human HCT-116 cells assessed as upregulation of Bax protein at 0.8 uM measured after 24 hrs by Western blot analysis; format: functional, cell-based
HCT-116 [15] = test: Cell cycle arrest in human HCT-116 cells assessed as decrease in CDK1 expression at 0.8 uM incubated for 24 hrs by Western blot analysis; format: functional, cell-based
HCT-116 [16] = test: Cell cycle arrest in human HCT-116 cells assessed as increase in cyclin B1 expression at 0.8 uM incubated for 24 hrs by Western blot analysis; format: functional, cell-based
HCT-116 [17] = test: Cell cycle arrest in human HCT-116 cells assessed as increase in p21 expression at 0.8 uM incubated for 24 hrs by Western blot analysis; format: functional, cell-based
HCT-116 [18] = test: Cell cycle arrest in human HCT-116 cells assessed as increase in p53 expression at 0.8 uM incubated for 24 hrs by Western blot analysis; format: functional, cell-based
HCT-116 [19] = test: Inhibition of beta-tubulin expression in human HCT-116 cells at 0.8 uM incubated for 24 hrs by Western blot analysis; format: functional, cell-based
[20] = Toxicity in SPF-grade Balb/c nude mouse xenografted with human HCT-116 cells assessed as average body weight at 33.86 to 45.17 mg/kg, ip measured after 10 days; format: organism-based; conditions: in vivo, 240 h, dose 33.86-45.17 mg/kg, time 10 day
HCT-116 [21] = test: Antitumor activity against human HCT-116 cells xenografted in SPF-grade Balb/c nude mouse model assessed as reduction in tumor size at 33.86 to 45.17 mg/kg, ip administered daily for 11 days by photographic analysis; format: functional, organism-based; conditions: dose 33.86-45.17 mg/kg, time 11.0 day
HCT-116 [22] = test: Antitumor activity against human HCT-116 cells xenografted in SPF-grade Balb/c nude mouse model assessed as tumor growth inhibition at 33.86 mg/kg, ip administered daily for 11 days relative to control; format: functional; conditions: HCT-116, 264 h, time 11 day, read-out: TGI
HCT-116 [23] = test: Antitumor activity against human HCT-116 cells xenografted in SPF-grade Balb/c nude mouse model assessed as inhibition of tumor cell growth at 33.86 to 45.17 mg/kg, ip administered daily for 11 days by H and E staining based analysis; format: functional, organism-based; conditions: dose 33.86-45.17 mg/kg, time 11.0 day

Row | Structure (SMILES) | IC50 at 48 h [1] [µM] | IC50 at 48 h [2] [µM] | pIC50 (HCT-116 [3]) | pIC50 (786-0) | pIC50 (HCC827) | pIC50 (K562) | pIC50 (MGC-803) | pIC50 (HepG2) | other results
1 | COc1ccc(CN2C(=O)C(=O)c3cc(-c4ccc(COC(C)=O)cc4)ccc32)cc1 | 34.7 | 9.02 | 5.70 | 4.30 | 4.53 | 5.94 | < 4.00 | 5.17 | –
2 | COc1ccc(CN2C(=O)C(=O)c3cc(-c4ccc(SC)cc4)ccc32)cc1 | 25 | 13.4 | 6.14 | 4.51 | 5.38 | 6.30 | 4.12 | 4.15 | –
3 | CCN(CC)CCNC(=O)c1c(C)[nH]c(/C=C2\C(=O)Nc3ccc(F)cc32)c1C [SUNITINIB] | 7.7 | 6.88 | 5.65 | 5.04 | 5.87 | 5.90 | 5.08 | 5.33 | –
4 | COc1ccc(CN2C(=O)C(=O)c3cc(-c4ccc(OC(=O)CCC(=O)NCCCC[C@H](NC(C)=O)C(=O)N5CCC[C@H]5C(=O)N[C@@H](CO)C(=O)N[C@@H](CO)C(=O)N5CCC[C@H]5C(=O)N5CCC[C@H]5C(=O)N[C@@H](CCC(=O)O)C(=O)N[C@@H](CCC(=O)O)C(N)=O)cc4)ccc32)cc1 (Ac-K(X1)PSSPPEE-NH2) | 43 | – | 6.64 | – | – | – | – | – | inhibition (HCT-116 [4]): Active; inhibition (HCT-116 [5]): Active; Activity (HCT-116 [6]): Active; Activity (HCT-116 [7]): Active; Activity (HCT-116 [8]): Active; More Evident Apoptotic State Observed; Activity (HCT-116 [9]): Active; Activity (HCT-116 [10]): Active; Activity (HCT-116 [11]): Active; Activity (HCT-116 [12]): Active; Activity (HCT-116 [13]): Active; Activity (HCT-116 [14]): Active; Activity (HCT-116 [15]): Active; Activity (HCT-116 [16]): Active; Activity (HCT-116 [17]): Active; Activity (HCT-116 [18]): Active; inhibition (HCT-116 [19]): Active; Activity [20]: ~ 10 g; Activity (HCT-116 [21]): Active; inhibition in vivo at 33.86 mg/kg (HCT-116 [22]): 47%; Activity (HCT-116 [23]): Active
